Patent US6436999B1, “Diacyl-substituted guanidines, a process for their preparation, their use as medicine or diagnostic aid, and medicine containing them” (Hoechst Aktiengesellschaft, priority 1993, dated 2002)
Counter-ions that a name gives are not always drawn.

Assays:
[1] = target: T1, Na^+/H^+ exchanger of rabbit erythrocytes (Oryctolagus cuniculus, UniProt P23791); assay: Inhibition of the Na+/H+ exchanger of rabbit erythrocytes (amiloride-sensitive sodium influx, flame photometry); format: cell-based; conditions: hyperosmolar salt/sucrose medium, pH 7.4, 37° C., Na^+ influx by flame photometry
T1 construct: endogenous in cells; host or cells: erythrocytes in whole blood from cholesterol-fed New Zealand White rabbits
Description: New Zealand White rabbits (Ivanovas) were given a standard diet containing 2% cholesterol for six weeks in order to activate Na^+/H^+ exchange and thus to be able to use flame photometry to determine the Na^+ influx into the erythrocytes via Na^+/H^+ exchange. The blood was removed from the aural arteries and rendered incoagulable by the addition of 25 IU of potassium heparin per ml. One part of each sample was used for the duplicate determination of the hematocrit by centrifugation. Aliquots of in each case 100 μl were employed for measuring the initial content of Na^+ in the erythrocytes.
In order to determine the amiloride-sensitive sodium influx, 100 μl of each blood sample were in each case incubated, at pH 7.4 and 37° C., in 5 ml of a hyperosmolar salt/sucrose medium (mmol/l: 140 NaCl, 3 KCl, 150 sucrose, 0.1 ouabain, 20 tris(hydroxymethyl)aminomethane). The erythrocytes were then washed three times with ice cold MgCl2/ouabain solution (mmol/l: 112 MgCl2, 0.1 ouabain) and hemolyzed in 2.0 ml of distilled water. The intracellular content of sodium was determined by flame photometry.
The nett influx of Na^+ was calculated from the difference between the initial sodium values and the sodium content of the erythrocytes following incubation. The amiloride-inhibitable sodium influx was given by the difference in the sodium content of the erythrocytes following incubation with and without 3×10^−4 mol/l amiloride. The same procedure was also used in the case of the compounds according invention.

T1 sequence (P23791 whole entry): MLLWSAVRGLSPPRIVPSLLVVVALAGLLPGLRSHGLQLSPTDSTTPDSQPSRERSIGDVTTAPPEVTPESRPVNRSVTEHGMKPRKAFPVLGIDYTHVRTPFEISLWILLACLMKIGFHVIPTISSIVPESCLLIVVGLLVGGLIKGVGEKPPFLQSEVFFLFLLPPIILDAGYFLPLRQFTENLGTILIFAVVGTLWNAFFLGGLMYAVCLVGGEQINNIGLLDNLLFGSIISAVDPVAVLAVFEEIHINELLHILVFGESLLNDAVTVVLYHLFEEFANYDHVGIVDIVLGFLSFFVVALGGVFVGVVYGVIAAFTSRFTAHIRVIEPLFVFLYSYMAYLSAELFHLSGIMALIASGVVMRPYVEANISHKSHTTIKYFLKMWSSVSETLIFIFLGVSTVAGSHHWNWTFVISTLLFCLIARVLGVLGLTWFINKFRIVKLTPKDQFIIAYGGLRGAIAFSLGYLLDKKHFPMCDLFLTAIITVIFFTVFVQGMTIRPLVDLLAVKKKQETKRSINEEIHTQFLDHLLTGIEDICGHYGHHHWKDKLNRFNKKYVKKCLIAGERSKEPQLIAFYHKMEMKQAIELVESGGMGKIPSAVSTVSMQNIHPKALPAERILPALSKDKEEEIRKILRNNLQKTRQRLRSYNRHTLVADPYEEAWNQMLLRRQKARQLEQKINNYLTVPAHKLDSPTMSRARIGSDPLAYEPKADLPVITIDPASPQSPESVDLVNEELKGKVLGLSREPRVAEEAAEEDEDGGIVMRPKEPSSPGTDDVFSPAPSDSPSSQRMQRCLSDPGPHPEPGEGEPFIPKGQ

SMILES	melting point	IC50 [1]
N=C(NC(=O)CCc1ccccc1C(F)(F)F)NC(=O)CCc1ccccc1C(F)(F)F (as salt: hydrochloride) [Example 7, N,N′-Bis[3-(2-trifluoromethylphenyl)propionyl]guanidide]	75 °C	
CC(C)c1ccc(C(=O)NC(=N)NC(=O)c2ccc(C(C)C)c(S(C)(=O)=O)c2)cc1S(C)(=O)=O [Example 1, Bis(3-methylsulfonyl-4-i-propylbenzoyl)guanidine]	218 to 221 °C	10000 nM
N=C(NC(=O)C1CCc2ccccc2C1)NC(=O)C1CCc2ccccc2C1 (stereo not shown) [Example 5, N,N′-Bis(1,2,3,4-tetrahydronaphthalene-2-carbonyl)guanidide]	99 °C	300 nM
C/C(=C\c1ccccc1)C(=O)NC(=N)NC(=O)/C(C)=C/c1ccccc1 [Example 6, N,N′-Bis[(E)-2-methylcinnamoyl]guanidide]		1100 nM
CC(Cc1cc(F)ccc1F)C(=O)NC(=N)NC(=O)C(C)Cc1cc(F)ccc1F (stereo not shown) [Example 8, N,N′-Bis[3-(2,5-difluorophenyl)-2-methylpropionyl]guanidide]		300 nM

Further lines, results first:

melting point	IC50 [1]	SMILES
143 to 145 °C	10000 nM	N=C(NC(=O)c1ccc(F)c(C(F)(F)F)c1)NC(=O)c1ccc(F)c(C(F)(F)F)c1 [Example 2, Bis(4-fluoro-3-trifluoromethylbenzoyl)guanidine]
	5000 nM	N=C(NC(=O)c1ccc(-n2ccnc2)c(C(F)(F)F)c1)NC(=O)c1ccc(-n2ccnc2)c(C(F)(F)F)c1 [Example 3, Bis[4-(l-imidazolyl)-3-trifluoromethylbenzoyl]guanidine]
217 to 218 °C (dec.)	3000 nM	Cl.N=C(NC(=O)c1ccc(F)c(C(F)(F)F)c1)NC(=O)c1ccc(-n2ccnc2)c(C(F)(F)F)c1 [Example 4, N-[4-(1-Imidazolyl)-3-trifluoromethylbenzoyl]-N′-(4-fluoro-3-trifluoromethylbenzoyl)guanidine Hydrochloride]
	2000 nM	N=C(NC(=O)CCc1ccccc1C(F)(F)F)NC(=O)CCc1ccccc1C(F)(F)F [Example 7, N,N′-Bis[3-(2-trifluoromethylphenyl)propionyl]guanidide]
